From patent US20150065416A1, “NOVEL DRUG COMBINATION” (FAB PHARMA SAS, priority 2013, published 2015)
≈ marks a conversion by molar mass, not a printed value.

Experiments:
[1] = test system: A. baumannii isolates; assay: Individual antimicrobial susceptibility testing (MIC, broth microdilution, CLSI); assay type: cell-based, Acinetobacter baumannii
Experimental: In the antimicrobial susceptibility testing 77 isolates of A. baumannii (from 2010) in the following sub-groups were tested: • 22 isolates generally susceptible to antimicrobial agents (“Sus”) • 20 carbapenem-resistant isolates (e.g. “MPM-R”) • 20 aminoglycoside-resistant isolates (e.g. “AMK-R”) • 15 colistin-resistant isolates. (e.g. “COL-R”)
Minimum inhibitory concentration (MIC) endpoints were determined by broth microdilution according to CLSI guidelines (CLSI, M7-A8 & M100-S22, 2012). Panels were prepared at IHMA using cation-adjusted Mueller-Hinton broth. Colonies were taken directly from a second-pass culture plate and prepared to a suspension equivalent of the 0.5 McFarland standard using normal saline.
Testing was carried out as described in the General Procedures to determine minimum inhibitory concentration (MIC) end points for compound (I), amikacin, colistin, gentamicin, meropenem and tobramycin, for 77 A. baumannii isolates. Under the “MIC (μg/ml)” heading, the first column (Range) indicates the MIC end points for the particular number (N) of isolates tested, the second column (50%) provides an estimate of the concentration that inhibits 50% (MIC50) of bacterial isolates tested, and the third column (90%) provides an estimate of the concentration that inhibits 90% of the bacterial isolates tested.

[2] = test system: A. baumannii isolates; assay: Time kill study (Example 4); assay type: cell-based, Acinetobacter baumannii; conditions: for Time to kill 99.9%: alone; for MIC: Acinetobacter baumannii, read-out: MIC
Experimental: A total of 12 isolates were tested (three per sub-group either susceptible, meropenem-resistant, amikacin-resistant or colistin-resistant). Two combinations were tested per isolate. Time-kill kinetics were performed by testing compound (I) and an additional antibacterial agent (amikacin, colistin and meropenem) individually at 1× and 4× the corresponding MIC of each antibacterial agent. […] Samples were taken at 0, 2, 4, 8 and 24 hours in order to determine colony forming units (CFU/mL).
Time-kill studies were carried out as described in General Procedures using combinations of compound (I) with amikacin, meropenem and colistin, respectively.

[3] = test system: A. baumannii SAN strain; assay: Bactericidal activity (time kill kinetics, Example 5); assay type: cell-based, Acinetobacter baumannii; conditions: alone at 2×MIC
Experimental: In addition, a second set of experiments involved the testing of compound(I)/additional antibacterial agent combinations of 2×/2×MIC. Samples were taken at 0, 3, 6 and 24 hours in order to determine colony forming units (CFU/mL).

[4] = test system: A. baumannii SAN-94040; assay: Mouse model of A. baumannii pneumonia, Study 1: survival; assay type: in vivo, Acinetobacter baumannii
Experimental: The bacterial inoculum was prepared in order to obtain a suspension containing 10^8 CFU/mL of Acinetobacter baumannii in saline.
Experimentations were performed with six-week old female C3H/HeN mice (18-20 g, Breeding Centre JANVIER (Ile saint Genest Mayenne 53)) because of their particular susceptibility to Acinetobacter baumannii and the reproducibility of the results (inbreeding in the breed). Each mouse was individually marked and housed in cages containing five animals/cage under ventilated and controlled (temperature and humidity) atmosphere.
The mice were rendered transiently neutropenic by 2 intra-peritoneal (IP) injections of 150 μL of cyclophosphamide (Endoxan® 150 mg/kg) 4 (D-4) and 3 (D-3) days before the Acinetobacter baumannii inoculation (Day 0). This transient immunosuppression was sufficient to facilitate the development of the A. baumannii pneumonia while allowing the recovery of the neutrophil influx 2 (Day 2) days after inoculation in order to avoid or limit a systemic bacterial dissemination.
Mice were anesthetized by a mixture of oxygen and isoflurane. The bacterial inoculation was performed on Day 0 by intra-tracheal installation using an endotracheal catheter (50 μl of the suspension, thus 5.106 CFU). The positioning of the catheter in the trachea (instead of in the oesophagus) was checked by a “ring test”. The bacterial count in lungs was checked for all study groups by sacrificing one mouse immediately after inoculation.
Survival observations were assessed twice daily, up to 4 days post infection. The survival rates were compared with the Chi-square test or the Fisher exact test as appropriate. The survival curves were compared by the Kaplan-Meier method.
The aim of this experiment was to assess the […], with compound (I) via intra-peritoneal route at 200 mg/kg 3 times daily (every 8 hours) for 1 day alone and in combination with meropenem at 50 mg/kg 3 times daily (every 8 hours) for 1 day or with amikacin at 18 mg/kg 3 times daily (every 8 hours) for 1 day.

[5] = Acinetobacter baumannii, All isolates, N=77
[6] = Acinetobacter baumannii, Amikacin-resistant isolates, N=20
[7] = Acinetobacter baumannii, Colistin-resistant isolates, N=15
[8] = Acinetobacter baumannii, Meropenem-resistant isolates, N=20
[9] = Acinetobacter baumannii, Susceptible isolates, N=22
[10] = Study 1, 24 h after infection, doses as E210
[11] = Study 1, 72 h after infection, doses as E210

Structure (SMILES): CCc1cc(O)c(Oc2ccc(C(N)=O)cc2F)cc1F [compound (I), 4-(4-ethyl-5-fluoro-2-hydroxyphenoxy)-3-fluorobenzamide]
- range of the majority of MICs ([1]; 77 isolates): 2 to 8 µg/mL
- MIC50 [1, 5]: 4 µg/mL (≈ 13.6 µM)
- MIC90 [1, 5]: 8 µg/mL (≈ 27.3 µM)
- MIC50 [1, 6]: 4 µg/mL (≈ 13.6 µM)
- MIC90 [1, 6]: 8 µg/mL (≈ 27.3 µM)
- MIC50 [1, 7]: 4 µg/mL (≈ 13.6 µM)
- MIC90 [1, 7]: > 32 µg/mL
- MIC50 [1, 8]: 8 µg/mL (≈ 27.3 µM)
- MIC90 [1, 8]: 8 µg/mL (≈ 27.3 µM)
- MIC50 [1, 9]: 4 µg/mL (≈ 13.6 µM)
- MIC90 [1, 9]: 8 µg/mL (≈ 27.3 µM)
- MIC ([1]; Acinetobacter baumannii, 77 isolates, FIG. 1 and 2, read-out: mode MIC): 4 µg/mL (≈ 13.6 µM)
- MIC Range ([1]; Amikacin-resistant isolates, N=20): 2 to 8 µg/mL
- MIC Range ([1]; Susceptible isolates, N=22): 0.5 to 8 µg/mL
- MICs ranging ([1]; amikacin-R isolates): 2 to 8 µg/mL
- MICs ranging ([1]; susceptible isolates): 0.5 to 8 µg/mL
- Time to kill 99.9% ([2]; AMK-R-1, 1xMIC): >24 h
- Time to kill 99.9% ([2]; AMK-R-1, 4xMIC): >24 h
- Time to kill 99.9% ([2]; AMK-R-2, 1xMIC): >24 h
- Time to kill 99.9% ([2]; AMK-R-2, 4xMIC): >24 h
- Time to kill 99.9% ([2]; AMK-R-3, 1xMIC): >24 h
- Time to kill 99.9% ([2]; AMK-R-3, 4xMIC): >24 h
- MIC ([2]; isolate AMK-R-1): 4 µg/mL
- MIC ([2]; isolate AMK-R-2): 4 µg/mL
- MIC ([2]; isolate AMK-R-3): 2 µg/mL
- MIC ([2]; isolate COL-R-1): 8 µg/mL
- MIC ([2]; isolate COL-R-2): 4 µg/mL
- MIC ([2]; isolate COL-R-3): 16 µg/mL
- MIC ([2]; isolate MPM-R-1): 8 µg/mL
- MIC ([2]; isolate MPM-R-2): 4 µg/mL
- MIC ([2]; isolate MPM-R-3): 4 µg/mL
- MIC ([2]; isolate Sus-1): 1 µg/mL
- MIC ([2]; isolate Sus-2): 2 µg/mL
- MIC ([2]; isolate Sus-3): 8 µg/mL
- MIC ([2]; isolate printed MPM-R-1 (second such line of Table 8, r14)): 4 µg/mL
- Time to kill 99.9% ([2]; COL-R-1, 1xMIC): >24 h
- Time to kill 99.9% ([2]; COL-R-1, 4xMIC): >24 h
- Time to kill 99.9% ([2]; COL-R-2, 1xMIC): >24 h
- Time to kill 99.9% ([2]; COL-R-2, 4xMIC): >24 h
- Time to kill 99.9% ([2]; COL-R-3, 1xMIC): >24 h
- Time to kill 99.9% ([2]; COL-R-3, 4xMIC): >24 h
- Time to kill 99.9% ([2]; MPM-R-1 (second line, Table 8 r14), 1xMIC): >24 h
- Time to kill 99.9% ([2]; MPM-R-1 (second line, Table 8 r14), 4xMIC): >24 h
- Time to kill 99.9% ([2]; MPM-R-1, 1xMIC): >24 h
- Time to kill 99.9% ([2]; MPM-R-1, 4xMIC): >24 h
- Time to kill 99.9% ([2]; MPM-R-2, 1xMIC): >24 h
- Time to kill 99.9% ([2]; MPM-R-2, 4xMIC): >24 h
- Time to kill 99.9% ([2]; MPM-R-3, 1xMIC): >24 h
- Time to kill 99.9% ([2]; MPM-R-3, 4xMIC): >24 h
- Time to kill 99.9% ([2]; Sus-1, 1xMIC): >24 h
- Time to kill 99.9% ([2]; Sus-1, 4xMIC): >24 h
- Time to kill 99.9% ([2]; Sus-2, 1xMIC): >24 h
- Time to kill 99.9% ([2]; Sus-2, 4xMIC): >24 h
- Time to kill 99.9% ([2]; Sus-3, 1xMIC): >24 h
- Time to kill 99.9% ([2]; Sus-3, 4xMIC): >24 h
- effect in time-kill studies when tested alone ([2]; alone at 1× or 4×MIC): bacteriostatic
- effect in time-kill study when tested alone [3]: bacteriostatic
- survivors (%) ([4]; Study 1, 0 h after infection, doses as E210): 100%
- No. of survivors [4, 10]: 10
- survivors (%) [4, 10]: 71%
- No. of survivors ([4]; Study 1, 48 h after infection, doses as E210): 0
- No. of survivors [4, 11]: 0
- survivors (%) [4, 11]: 0%
- No. of survivors ([4]; Study 1, 96 h after infection, doses as E210): 0
- No. of survivors ([4]; Study 1, C3H/HeN mice, 0 h after SAN-94040 infection, compound (I) 200 mg/kg, amikacin 18 mg/kg, meropenem 50 mg/kg q 8 h I.P.): 14
- time post-infection within which all animals died ([4]; Study 1, SAN-94040): ≤ 48 h
